Reference: patent US20150105252A1, “SUBSTITUTED PYRAZOLES AS HERBICIDES” (E I DU PONT DE NEMOURS AND COMPANY, priority 2013, published 2015)

Experiments:
barnyardgrass [1] = experiment: Test A postemergence; type: in vivo, Echinochloa crus-galli; conditions: Postemergence
How it was run: (§1)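 Pre- and postemergence greenhouse test; loam+sand; cpd in non-phytotox. solvent/surfactant; post at 1–2 leaf, 2–10 cm; visual score ~10 d, 0 = none, 100 = complete control.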

sedge, umbrella = experiment: Test C flooded paddy test; type: in vivo, Cyperus difformis; conditions: Flood
Description: (§2) At time of treatment, test pots were flooded to 3 cm above the soil surface, treated by application of test compounds directly to the paddy water, and then maintained at that water depth for the duration of the test. Treated plants and controls were maintained in a greenhouse for 13 to 15 days, after which time all species were compared to controls and visually evaluated. […] A dash (-) response means no test result.

barnyardgrass [2] = experiment: Test A preemergence; type: in vivo, Echinochloa crus-galli; conditions: 0 to 100 scale
How it was run: as §1

ducksalad = experiment: Test C flooded paddy test; type: in vivo, Heteranthera limosa; conditions: Flood
Description: as §2

morningglory [3] = experiment: Test A postemergence; type: in vivo, Ipomoea spp.
How it was run: as §1

crabgrass, large [4] = experiment: Test A postemergence; type: in vivo, Digitaria sanguinalis
How it was run: as §1

barnyardgrass [5] = experiment: Test C flooded paddy test; type: in vivo, Echinochloa crus-galli; conditions: Flood
Description: as §2

wheat [6] = experiment: Test A preemergence; type: in vivo, Triticum aestivum; conditions: 0 to 100 scale
How it was run: as §1

rice = experiment: Test C flooded paddy test; type: in vivo, Oryza sativa; conditions: Flood
Description: as §2

velvetleaf [7] = experiment: Test A postemergence; type: in vivo, Abutilon theophrasti
How it was run: as §1

morningglory [8] = experiment: Test A preemergence; type: in vivo, Ipomoea spp.; conditions: 0 to 100 scale
How it was run: as §1

foxtail, giant [9] = experiment: Test A postemergence; type: in vivo, Setaria faberii
How it was run: as §1

velvetleaf [10] = experiment: Test A preemergence; type: in vivo, Abutilon theophrasti; conditions: 0 to 100 scale
How it was run: as §1

corn [11] = experiment: Test A postemergence; type: in vivo, Zea mays
How it was run: as §1

pigweed [12] = experiment: Test A postemergence; type: in vivo, Amaranthus retroflexus
How it was run: as §1

wheat [13] = experiment: Test A postemergence; type: in vivo, Triticum aestivum
How it was run: as §1

corn [14] = experiment: Test A preemergence; type: in vivo, Zea mays; conditions: 0 to 100 scale
How it was run: as §1

pigweed [15] = experiment: Test A preemergence; type: in vivo, Amaranthus retroflexus; conditions: 0 to 100 scale
How it was run: as §1

crabgrass, large [16] = experiment: Test A preemergence; type: in vivo, Digitaria sanguinalis; conditions: 0 to 100 scale
How it was run: as §1

foxtail, giant [17] = experiment: Test A preemergence; type: in vivo, Setaria faberii; conditions: 0 to 100 scale
How it was run: as §1

[18] = 62 g ai/ha, scale 0 to 100 (0 no effect, 100 complete control)
[19] = Preemergence, 500 g ai/ha, 0 no effect, 100 complete control
[20] = preemergence, 125 g ai/ha, visual injury, approx. 10 days
[21] = Postemergence, 500 g ai/ha, visual rating after approx. 10 days, 0 to 100 scale (0 no effect, 100 complete control)
[22] = postemergence, 125 g ai/ha, about 10 days, visual rating on 0 to 100 scale (0 no effect, 100 complete control)
[23] = 1000 g ai/ha, visual rating after approx. 10 days, 0 to 100 scale (0 no effect, 100 complete control)
[24] = 31 g ai/ha, scale 0 to 100 (0 no effect, 100 complete control)
[25] = Preemergence, 1000 g ai/ha, 0 no effect, 100 complete control
[26] = Postemergence, 1000 g ai/ha, visual rating after approx. 10 days, 0 to 100 scale (0 no effect, 100 complete control)

Cc1cc(C(=O)NCC(F)(F)F)nn1Cc1cccc(OC(F)(F)F)c1 [Compound 5]
Barnyardgrass plant response rating (barnyardgrass [1]; 125 g ai/ha, 0 to 100 scale, 0 no effect, 100 complete control): 10 | Barnyardgrass plant response rating (barnyardgrass [1]; 500 g ai/ha, visual rating after approx. 10 days, 0 to 100 scale (0 no effect, 100 complete control)): 40 | Plant response rating, Sedge, Umbrella (sedge, umbrella; [18]): 50 | Plant response rating, Sedge, Umbrella (sedge, umbrella; 250 g ai/ha, scale 0 to 100): 75 | Barnyardgrass plant response rating (barnyardgrass [2]; [19]): 60 | Barnyardgrass plant response rating (barnyardgrass [2]; [20]): 0 | Plant response rating, Ducksalad (ducksalad; [18]): 0 | Plant response rating, Ducksalad (ducksalad; 250 g ai/ha, scale 0 to 100): 60 | Morningglory plant response rating (morningglory [3]; [21]): 100 | Morningglory plant response rating (morningglory [3]; [22]): 40 | Crabgrass, Large plant response rating (crabgrass, large [4]; [21]): 70 | Crabgrass, Large plant response rating (crabgrass, large [4]; [22]): 10 | Plant response rating, Barnyardgrass (barnyardgrass [5]; [18]): 0 | Plant response rating, Barnyardgrass (barnyardgrass [5]; 250 g ai/ha, scale 0 to 100): 0 | Wheat plant response rating (wheat [6]; [20]): 0 | Plant response rating, Rice (rice; [18]): 0 | Plant response rating, Rice (rice; 250 g ai/ha, scale 0 to 100): 0 | Velvetleaf plant response rating (velvetleaf [7]; [21]): 60 | Velvetleaf plant response rating (velvetleaf [7]; [22]): 20 | Morningglory plant response rating (morningglory [8]; [19]): 40 | Morningglory plant response rating (morningglory [8]; [20]): 0 | Foxtail, Giant plant response rating (foxtail, giant [9]; [21]): 60 | Foxtail, Giant plant response rating (foxtail, giant [9]; [22]): 10 | Velvetleaf plant response rating (velvetleaf [10]; [19]): 20 | Velvetleaf plant response rating (velvetleaf [10]; [20]): 0 | Corn plant response rating (corn [11]; [21]): 40 | Corn plant response rating (corn [11]; [22]): 10 | Pigweed plant response rating (pigweed [12]; [21]): 90 | Pigweed plant response rating (pigweed [12]; [22]): 50 | Wheat plant response rating (wheat [13]; [21]): 10 | Wheat plant response rating (wheat [13]; [22]): 0 | Corn plant response rating (corn [14]; [19]): 0 | Corn plant response rating (corn [14]; [20]): 0 | Pigweed plant response rating (pigweed [15]; [19]): 100 | Pigweed plant response rating (pigweed [15]; [20]): 10 | Crabgrass, Large plant response rating (crabgrass, large [16]; [19]): 100 | Crabgrass, Large plant response rating (crabgrass, large [16]; [20]): 20 | Foxtail, Giant plant response rating (foxtail, giant [17]; [19]): 70 | Foxtail, Giant plant response rating (foxtail, giant [17]; [20]): 10

CCCNC(=O)c1cc(CC)n(Cc2cccc(C(F)(F)F)c2)n1 [Compound 16]
Barnyardgrass plant response rating (barnyardgrass [1]; [23]): 60 | Plant response rating, Sedge, Umbrella (sedge, umbrella; [24]): 70 | Plant response rating, Sedge, Umbrella (sedge, umbrella; [18]): 85 | Plant response rating, Sedge, Umbrella (sedge, umbrella; 125 g ai/ha, scale 0 to 100): 100 | Plant response rating, Sedge, Umbrella (sedge, umbrella; 250 g ai/ha, scale 0 to 100): 100 | Barnyardgrass plant response rating (barnyardgrass [2]; [25]): 90 | Plant response rating, Ducksalad (ducksalad; [24]): 50 | Plant response rating, Ducksalad (ducksalad; [18]): 85 | Plant response rating, Ducksalad (ducksalad; 125 g ai/ha, scale 0 to 100): 95 | Plant response rating, Ducksalad (ducksalad; 250 g ai/ha, scale 0 to 100): 100 | Morningglory plant response rating (morningglory [3]; [26]): 100 | Crabgrass, Large plant response rating (crabgrass, large [4]; [26]): 80 | Plant response rating, Barnyardgrass (barnyardgrass [5]; [24]): 0 | Plant response rating, Barnyardgrass (barnyardgrass [5]; [18]): 0 | Plant response rating, Barnyardgrass (barnyardgrass [5]; 125 g ai/ha, scale 0 to 100): 0 | Plant response rating, Barnyardgrass (barnyardgrass [5]; 250 g ai/ha, scale 0 to 100): 20 | Wheat plant response rating (wheat [6]; [25]): 50 | Plant response rating, Rice (rice; [24]): 0 | Plant response rating, Rice (rice; [18]): 0 | Plant response rating, Rice (rice; 125 g ai/ha, scale 0 to 100): 25 | Plant response rating, Rice (rice; 250 g ai/ha, scale 0 to 100): 25 | Velvetleaf plant response rating (velvetleaf [7]; [26]): 100 | Morningglory plant response rating (morningglory [8]; [25]): 100 | Foxtail, Giant plant response rating (foxtail, giant [9]; [26]): 80 | Velvetleaf plant response rating (velvetleaf [10]; [25]): 30 | Corn plant response rating (corn [11]; [26]): 50 | Pigweed plant response rating (pigweed [12]; [26]): 90 | Wheat plant response rating (wheat [13]; [26]): 50 | Corn plant response rating (corn [14]; [25]): 50 | Pigweed plant response rating (pigweed [15]; [25]): 100 | Crabgrass, Large plant response rating (crabgrass, large [16]; [25]): 100 | Foxtail, Giant plant response rating (foxtail, giant [17]; [25]): 100

CCCc1cc(C(=O)NCC(F)(F)F)nn1Cc1cccc(OC(F)(F)F)c1 [Compound 32]
Barnyardgrass plant response rating (barnyardgrass [1]; [23]): 40 | Plant response rating, Sedge, Umbrella (sedge, umbrella; [24]): 20 | Plant response rating, Sedge, Umbrella (sedge, umbrella; [18]): 30 | Plant response rating, Sedge, Umbrella (sedge, umbrella; 125 g ai/ha, scale 0 to 100): 50 | Plant response rating, Sedge, Umbrella (sedge, umbrella; 250 g ai/ha, scale 0 to 100): 80 | Barnyardgrass plant response rating (barnyardgrass [2]; [25]): 70 | Plant response rating, Ducksalad (ducksalad; [24]): 10 | Plant response rating, Ducksalad (ducksalad; [18]): 20 | Plant response rating, Ducksalad (ducksalad; 125 g ai/ha, scale 0 to 100): 50 | Plant response rating, Ducksalad (ducksalad; 250 g ai/ha, scale 0 to 100): 70 | Morningglory plant response rating (morningglory [3]; [26]): 100 | Crabgrass, Large plant response rating (crabgrass, large [4]; [26]): 70 | Plant response rating, Barnyardgrass (barnyardgrass [5]; [24]): 0 | Plant response rating, Barnyardgrass (barnyardgrass [5]; [18]): 0 | Plant response rating, Barnyardgrass (barnyardgrass [5]; 125 g ai/ha, scale 0 to 100): 0 | Plant response rating, Barnyardgrass (barnyardgrass [5]; 250 g ai/ha, scale 0 to 100): 0 | Wheat plant response rating (wheat [6]; [25]): 0 | Plant response rating, Rice (rice; [24]): 0 | Plant response rating, Rice (rice; [18]): 0 | Plant response rating, Rice (rice; 125 g ai/ha, scale 0 to 100): 0 | Plant response rating, Rice (rice; 250 g ai/ha, scale 0 to 100): 0 | Velvetleaf plant response rating (velvetleaf [7]; [26]): 80 | Morningglory plant response rating (morningglory [8]; [25]): 50 | Foxtail, Giant plant response rating (foxtail, giant [9]; [26]): 50 | Velvetleaf plant response rating (velvetleaf [10]; [25]): 30 | Corn plant response rating (corn [11]; [26]): 30 | Pigweed plant response rating (pigweed [12]; [26]): 100 | Wheat plant response rating (wheat [13]; [26]): 20 | Corn plant response rating (corn [14]; [25]): 0 | Pigweed plant response rating (pigweed [15]; [25]): 100 | Crabgrass, Large plant response rating (crabgrass, large [16]; [25]): 100 | Foxtail, Giant plant response rating (foxtail, giant [17]; [25]): 100
